Test results reported in US20130274338A1, “PHARMACEUTICAL COMPOSITIONS COMPRISING DGLA, 15-OHEPA, AND/OR 15-HETRE AND METHODS OF REDUCING SEBUM PRODUCTION USING SAME” (priority 2012, published 2013).
Values after ≈ are worked out from the molar mass of the structure shown. Values belong to the molecule of their own block, whether it stands above or below them.

Key:
[1] = test system: immortalized sebocyte cell line; assay: Sebocyte proliferation: viability (M.T.T. test) and morphology after 72 hours; format: cell-based; conditions: Homo sapiens
P. acnes = assay: Agar dilution method, growth of P. acnes and MIC, single compounds; format: cell-based, Propionibacterium acnes; parameters: key to Growth Index Plate 1 / Growth Index Plate 2 / Growth Index Plate 3 / Growth Index Avg: +++: confluent growth (comparable to control); ++: less confluent growth; +: marked reduction in growth to multiple tiny, single colonies; −: no growth present; conditions: for MIC: Cutibacterium acnes, compound alone, MIC = concentration with marked reduction (+) of growth, read-out: MIC (mg/mL) as per P-11-0007 or P-11-0008 Addendum A
Procedure: Several compounds including fatty acids such as DGLA, 15-OHEPA, and 15-HETrE were tested to determine their capacity to inhibit the growth of P. acnes. In an exemplary method, an agar dilution method was used to determine the minimum inhibitory concentration (MIC) of each tested compound. Briefly, the agar dilution method involved preparing a series of concentrations of each compound (e.g., nicotinamide, benzoyl peroxide, adapalene, metronidazole, DGLA, 15-OHEPA, and 15-HETrE) in a Reinforced Clostridial Agar (RCA) media that facilitates growth of P. acnes under anaerobic conditions. An inoculum of P. acnes was prepared by incubation of P. acnes for approximately seven days at 35-37° C. to achieve a ≧1.0 OD600 inoculum of P. acnes in RCM broth. A portion of this inoculum was then added to the surface of each plate as a 10 μL spot and incubated at 35-37° C. for 72 hours or more. Growth of P. acnes was then observed and compared to control plates in which no compound has been added, and positive inhibition plates prepared with erythromycin. […] The growth of P. acnes in the presence of nicotinamide, benzoyl peroxide, adapalene, metronidazole, DGLA, 15-OHEPA, and 15-HETrE was determined with varying concentrations of the compound (see, Table 2). Next, the MIC was determined as the concentration at which a marked reduction (+) occurs in the appearance of growth on the test plate (as per Clinical and Laboratory Standards Institute M11-A7).

[2] = test system: immortalized sebocyte cell line; assay: Sebocyte proliferation: viability (M.T.T. test) and morphology after 72 hours; format: cell-based, human
Text: In an embodiment, the pharmacodynamics of a composition comprising DGLA, 15-OHEPA, or 15-HETrE as disclosed herein may be examined using a model of sebum production. In an embodiment, the effects of a composition comprising DGLA, 15-OHEPA, or 15-HETrE as disclosed herein on the proliferation and/or differentiation of sebocytes serves as a model for the pharmacodynamics on sebum production (see, e.g., U.S. Patent Application Publication No. US 2010/0278948, the contents of which are incorporated by reference). In an exemplary method, primary sebocytes are isolated from skin tissue (e.g., human scalp tissue). The isolated primary sebocytes are then immortalized, and the resulting cell line is divided into discrete cultures. Discrete cultures can then be treated with various concentrations of a composition comprising DGLA, 15-OHEPA, or 15-HETrE as disclosed herein. For comparison, a negative control (e.g., a culture of an immortalized sebocyte cell line left untreated) and/or a positive control (e.g., treatment of an immortalized sebocyte cell line with a compound known to inhibit sebocyte growth such as isotretinoin) can be maintained alongside of the test cultures. In an embodiment, a pharmacodynamic assay is maintained for an amount of time suitable to observe differences (if any) between the various immortalized sebocyte cell cultures, for example less than about 24 hours, about 24 hours, about 48 hours, about 72 hours, about 96 hours, about 120 hours, about 144 hours, more than about 144 hours, etc. The effect of treating an immortalized sebocyte cell culture with a given composition or compound can be determined by quantifying, for example and without limitation, the viability of the cultures (e.g., the percent viability and/or mean percent viability). The effect of treating an immortalized sebocyte cell culture with a given composition or compound can be determined by qualitatively assessing, for example and without limitation, morphological changes in the culture. In an embodiment, changes in the morphology of the culture may be classified as: no change (e.g., “normal” population), reduced growth (e.g., “growth reduction”), toxic changes (e.g., “toxicity”), and/or cell death (e.g., “cell mortality”).
The compounds tested in Example 1 were tested to determine the capacity of each to reduce sebum production. In an exemplary method, each compound's ability to inhibit the growth of an immortalized sebocyte cell line was determined.
Primary sebocytes were isolated from sebaceous glands obtained from dissections of human scalp tissue. The primary sebocytes were immortalized and the resulting cell culture was used to study the effects of DGLA and 15-HETrE on sebocyte cell proliferation. Individual cell cultures were treated with eight concentrations of DGLA (1.00 μM, 4.00 μM, […], 37.00 μM, 111.00 μM, 333.00 μM, 1000.00 μM, and 3000.00 μM), and eight concentrations of 15-HETrE (0.50 1.00 4.00 10.00 40.00 110.00 330.00 1000.00). As a positive control, individual cell cultures were treated with eight concentrations of Isotretinoin. Negative control cultures were also maintained. After 72 hours, the mean percent viability for each of the cultures was determined by colorimetry (M.T.T. test) according to J. Mosmann, J. Immunol. Meth., vol. 65, pp. 55-63 (1983), and morphological differences were also observed at that time (see Table 9).

Compound: CC1=C(/C=C/C(C)=C/C=C/C(C)=C\C(=O)O)C(C)(C)CCC1 [Isotretinoin]
Morphological Observations ([2]; 1.11 μM, 72 hours): toxicity
viability at 0.005 µM ([2]; Homo sapiens, 0.005 μM, 72 hours): 105%
viability at 0.014 µM ([2]; Homo sapiens, 0.014 μM, 72 hours): 110%
viability at 0.041 µM ([2]; Homo sapiens, 0.041 μM, 72 hours): 103%
viability at 0.123 µM ([2]; Homo sapiens, 0.123 μM, 72 hours): 96%
viability at 0.37 µM ([2]; Homo sapiens, 0.370 μM, 72 hours): 88%
viability at 1.11 µM ([2]; Homo sapiens, 1.11 μM, 72 hours): 76%
viability at 3.33 µM ([2]; Homo sapiens, 3.33 μM, 72 hours): 8%
viability at 10 µM ([2]; Homo sapiens, 10.00 μM (10 μM), 72 hours): 1%

Compound: CCCCCC(O)/C=C/C=C\C/C=C\CCCCCCC(=O)O (stereo not drawn) [15-HETrE, 15-hydroxy-eicosa-8(Z),11(Z),13(E)-trienoic acid]
effect on growth of P. acnes on its own (P. acnes; 0.01 mg/ml): no effect
Growth Index Avg (P. acnes; compound at 0.00001 mg/mL): +++
Growth Index Plate 1 (P. acnes; compound at 0.00001 mg/mL): +++
Growth Index Plate 2 (P. acnes; compound at 0.00001 mg/mL): +++
Growth Index Plate 3 (P. acnes; compound at 0.00001 mg/mL): +++
Growth Index Avg (P. acnes; compound at 0.0001 mg/mL): +++
Growth Index Plate 1 (P. acnes; compound at 0.0001 mg/mL): +++
Growth Index Plate 2 (P. acnes; compound at 0.0001 mg/mL): +++
Growth Index Plate 3 (P. acnes; compound at 0.0001 mg/mL): +++
Growth Index Avg (P. acnes; compound at 0.001 mg/mL): +++
Growth Index Plate 1 (P. acnes; compound at 0.001 mg/mL): +++
Growth Index Plate 2 (P. acnes; compound at 0.001 mg/mL): +++
Growth Index Plate 3 (P. acnes; compound at 0.001 mg/mL): +++
Growth Index Avg (P. acnes; compound at 0.01 mg/mL): ++
Growth Index Plate 1 (P. acnes; compound at 0.01 mg/mL): ++
Growth Index Plate 2 (P. acnes; compound at 0.01 mg/mL): +++
Growth Index Plate 3 (P. acnes; compound at 0.01 mg/mL): ++
Growth Index Avg (P. acnes; compound at 0.05 mg/mL): −
Growth Index Plate 1 (P. acnes; compound at 0.05 mg/mL): −
Growth Index Plate 2 (P. acnes; compound at 0.05 mg/mL): −
Growth Index Plate 3 (P. acnes; compound at 0.05 mg/mL): −
Mean % Viability ([2]; 0.5 µM): 85%
Mean % Viability ([2]; 1 µM): 77%
Mean % Viability ([2]; 4 µM): 52%
Morphological Observations ([2]; 4.00 μM, 72 hours): toxicity
Mean % Viability ([2]; 10 µM): 18%
Morphological Observations ([2]; 10.00 μM (10 μM), 72 hours): toxicity
Mean % Viability ([2]; 40 µM): 1%
Mean % Viability ([2]; 110 µM): 1%
Mean % Viability ([2]; 330 µM): 0%
Mean % Viability ([2]; 1000 µM): 0%

Compound: CCC=CCC(O)C=CC=CCC=CCC=CCCCC(=O)O (stereo not drawn) [15-OHEPA, 15-Hydroxy-eicosa-5,8,11,13,17-pentaenoic acid]
effect on growth of P. acnes on its own (P. acnes; 0.05 mg/mL): no effect
MIC (P. acnes): 50 to 75 mg/L (≈ 157 to 236 µM)
Growth Index Avg (P. acnes; compound at 0.010 mg/mL): +++
Growth Index Plate 1 (P. acnes; compound at 0.010 mg/mL): +++
Growth Index Plate 2 (P. acnes; compound at 0.010 mg/mL): +++
Growth Index Plate 3 (P. acnes; compound at 0.010 mg/mL): +++
Growth Index Avg (P. acnes; compound at 0.025 mg/mL): +++
Growth Index Plate 1 (P. acnes; compound at 0.025 mg/mL): +++
Growth Index Plate 2 (P. acnes; compound at 0.025 mg/mL): +++
Growth Index Plate 3 (P. acnes; compound at 0.025 mg/mL): +++
Growth Index Avg (P. acnes; compound at 0.050 mg/mL): +++
Growth Index Plate 1 (P. acnes; compound at 0.050 mg/mL): +++
Growth Index Plate 2 (P. acnes; compound at 0.050 mg/mL): +++
Growth Index Plate 3 (P. acnes; compound at 0.050 mg/mL): +++
Growth Index Avg (P. acnes; compound at 0.075 mg/mL): +
Growth Index Plate 1 (P. acnes; compound at 0.075 mg/mL): +
Growth Index Plate 2 (P. acnes; compound at 0.075 mg/mL): +
Growth Index Plate 3 (P. acnes; compound at 0.075 mg/mL): +
Growth Index Avg (P. acnes; compound at 0.1 mg/mL): −
Growth Index Plate 1 (P. acnes; compound at 0.1 mg/mL): −
Growth Index Plate 2 (P. acnes; compound at 0.1 mg/mL): −
Growth Index Plate 3 (P. acnes; compound at 0.1 mg/mL): −

Now from value to molecule, other results behind:

MIC (P. acnes): 400 to 600 mg/L (≈ 1310 to 1960 µM)
Compound: CCCCC/C=C\C/C=C\C/C=C\CCCCCCC(=O)O [DGLA, cis-8,11,14-eicosatrienoic acid]
viability at 12 µM [1]: 63%
effect on growth of P. acnes on its own (P. acnes; 0.4 mg/ml): no effect
Growth Index Avg (P. acnes; compound at 0.2 mg/mL): +++
Growth Index Plate 1 (P. acnes; compound at 0.2 mg/mL): +++
Growth Index Plate 2 (P. acnes; compound at 0.2 mg/mL): +++
Growth Index Plate 3 (P. acnes; compound at 0.2 mg/mL): +++
Growth Index Avg (P. acnes; compound at 0.4 mg/mL): +++
Growth Index Plate 1 (P. acnes; compound at 0.4 mg/mL): +++
Growth Index Plate 2 (P. acnes; compound at 0.4 mg/mL): +++
Growth Index Plate 3 (P. acnes; compound at 0.4 mg/mL): +++
Growth Index Avg (P. acnes; compound at 0.6 mg/mL): +
Growth Index Plate 1 (P. acnes; compound at 0.6 mg/mL): ++
Growth Index Plate 2 (P. acnes; compound at 0.6 mg/mL): −
Growth Index Plate 3 (P. acnes; compound at 0.6 mg/mL): ++
Growth Index Avg (P. acnes; compound at 0.8 mg/mL): +
Growth Index Plate 1 (P. acnes; compound at 0.8 mg/mL): ++
Growth Index Plate 2 (P. acnes; compound at 0.8 mg/mL): +
Growth Index Plate 3 (P. acnes; compound at 0.8 mg/mL): +
Growth Index Avg (P. acnes; compound at 1.0 mg/mL): +
Growth Index Plate 1 (P. acnes; compound at 1.0 mg/mL): +
Growth Index Plate 2 (P. acnes; compound at 1.0 mg/mL): +
Growth Index Plate 3 (P. acnes; compound at 1.0 mg/mL): +
viability at 1 µM ([2]; Homo sapiens, 1.00 μM, 72 hours): 107%
viability at 4 µM ([2]; Homo sapiens, 4.00 μM, 72 hours): 97%
viability at 37 µM ([2]; Homo sapiens, 37.00 μM, 72 hours): 1%
viability at 111 µM ([2]; Homo sapiens, 111.00 μM, 72 hours): 2%
viability at 333 µM ([2]; Homo sapiens, 333.00 μM, 72 hours): 1%
viability at 1000 µM ([2]; Homo sapiens, 1000.00 μM, 72 hours): 1%
viability at 3000 µM ([2]; Homo sapiens, 3000.00 μM, 72 hours): 3%

MIC (P. acnes): 0.01 to 0.05 mg/L (≈ 0.0136 to 0.0681 µM)
Compound: CC[C@H]1OC(=O)[C@H](C)[C@@H](O[C@H]2C[C@@](C)(OC)[C@@H](O)[C@H](C)O2)[C@H](C)[C@@H](O[C@@H]2O[C@H](C)C[C@H](N(C)C)[C@H]2O)[C@](C)(O)C[C@@H](C)C(=O)[C@H](C)[C@@H](O)[C@]1(C)O [Erythromycin]
